Reference: article PMC7156458, “Synthetic biology based construction of biological activity-related library of fungal decalin-containing diterpenoid pyrones” (Nature Communications, 2020)

Tests used:
Assay in all cases: cells
Design in all cases: JFCR39 human cancer cell line panel, antiproliferative dose response (optical density), GI50
SK-OV-3 = settings: Homo sapiens, SK-OV-3
Protocol: (§1) Initially, we evaluated new DDP analogues for their antiproliferative activities across the panel of 39 human cancer cell lines, JFCR39[50],[51]. […] Purified DDPs was dissolved in DMSO (Specially Prepared Reagent, Nuclease and Protease tested, NACALAI, 09659-14) to prepare 5 mM solutions. The Each DDP solution (5 mM) was used for antiproliferative effects on cancer cell lines (Supplementary Notes 23, 24, 25, 26), biological activity against Drosophila (Supplementary Note 27), anti-HIV assay (Supplementary Note 28) and screening of amyloid Ab42 aggregation inhibitors (Supplementary Notes 29).

OVCAR-5 = settings: Homo sapiens, OVCAR-5
Protocol: as §1

PC-3 = settings: Homo sapiens, PC-3
Protocol: as §1

RXF-631L = settings: RXF-631L
Protocol: as §1

St-4 = settings: Homo sapiens, St-4
Protocol: as §1

SF-295 = settings: Homo sapiens, SF-295
Protocol: as §1

NCI-H522 = settings: Homo sapiens, NCI-H522
Protocol: as §1

OVCAR-3 = settings: Homo sapiens, OVCAR-3
Protocol: as §1

OVCAR-4 = settings: Homo sapiens, OVCAR-4
Protocol: as §1

HBC-4 = settings: HBC4
Protocol: as §1

HBC-5 = settings: HBC5
Protocol: as §1

MDA-MB-231 = settings: Homo sapiens, MDA-MB-231
Protocol: as §1

A549 = settings: Homo sapiens, A549
Protocol: as §1

U251 = settings: Homo sapiens, U-251
Protocol: as §1

DMS114 = settings: Homo sapiens, DMS-114
Protocol: as §1

MKN1 = settings: Homo sapiens, MKN-1
Protocol: as §1

NCI-H226 = settings: Homo sapiens, NCI-H226
Protocol: as §1

SNB-75 = settings: Homo sapiens, SNB-75
Protocol: as §1

NCI-H23 = settings: Homo sapiens, NCI-H23
Protocol: as §1

MKN45 = settings: Homo sapiens, MKN-45
Protocol: as §1

DMS273 = settings: Homo sapiens, DMS-273
Protocol: as §1

DU-145 = settings: Homo sapiens, DU-145
Protocol: as §1

HCC2998 = settings: Homo sapiens, HCC 2998
Protocol: as §1

HCT-116 = settings: Homo sapiens, HCT-116
Protocol: as §1

MKN74 = settings: Homo sapiens, MKN-74
Protocol: as §1

KM-12 = settings: Homo sapiens, KM12
Protocol: as §1

SNB-78 = settings: Homo sapiens, SNB-78
Protocol: as §1

GI50 (SK-OV-3) [µM] | GI50 (OVCAR-5) [µM] | GI50 (PC-3) [µM] | GI50 (NCI-H522) [µM] | GI50 (OVCAR-3) [µM] | GI50 (OVCAR-4) [µM] | GI50 (MDA-MB-231) [µM] | GI50 (A549) [µM] | GI50 (U251) [µM] | GI50 (MKN1) [µM] | GI50 (NCI-H226) [µM] | GI50 (NCI-H23) [µM] | GI50 (MKN45) [µM] | Structure (SMILES) | GI50 (RXF-631L) [µM] | GI50 (St-4) [µM] | GI50 (SF-295) [µM] | GI50 (HBC-4) [µM] | GI50 (HBC-5) [µM] | GI50 (DMS114) [µM] | GI50 (SNB-75) [µM] | also measured
10.8 | 15.4 | 10.9 | 0.721 | 1.47 | 7.04 | 11.9 | 10.4 | 13.2 | 13.2 | 10.7 | 0.228 | 11.1 | C=C1CCC2C3(C)CC(C=C(C)C)OC3CCC2(C)C1Cc1c(OC)oc(C)c(C)c1=O (stereo not drawn) [Compound 23] | 10.2 | 12.4 | 1.12 | 13.2 | 10.7 | 0.0552 | 13.3 | GI50 (DMS273): 0.265 µM; GI50 (DU-145): 12.3 µM; GI50 (HCC2998): 12 µM; GI50 (HCT-116): 0.995 µM; GI50 (MKN74): 4.22 µM; GI50 (KM-12): 10.3 µM; GI50 (SNB-78): 12.3 µM
10.7 | 14.5 | 11.8 | 0.754 | 2.68 | 6.49 | 11.6 | 6.88 | 13.5 | 12.2 | 10.6 | 0.668 | 9.14 | C=C1CC[C@H]2[C@]3(C)C[C@H](C=C(C)C)O[C@H]3CC[C@]2(C)[C@@H]1Cc1c(OC)oc(C)c(C)c1=O [Compound 24] | 10.9 | 12.2 | 2.21 | 13.4 | 10.7 | 0.189 | 13.9 | GI50 (DMS273): 0.484 µM; GI50 (DU-145): 12.2 µM; GI50 (HCC2998): 12.7 µM; GI50 (HCT-116): 1.3 µM; GI50 (MKN74): 3.72 µM; GI50 (KM-12): 9.49 µM; GI50 (SNB-78): 12.9 µM
